Test results: ChEMBL document CHEMBL5036320, “Discovery of Icenticaftor (QBW251), a Cystic Fibrosis Transmembrane Conductance Regulator Potentiator with Clinical Efficacy in Cystic Fibrosis and Chronic Obstructive Pulmonary Disease” (J Med Chem, 2021)
Converted amounts (≈) assume the structure as drawn.

Assays:
[1] = Solubility of the compound at pH 6.8; assay type: physicochemical; details: buffer
[2] = tested on: Cystic fibrosis transmembrane conductance regulator (Homo sapiens), P13569 [F508del]; assay: Potentiation of CFTR F508del mutant (unknown origin) expressed in CHO cells assessed as chloride transport by measuring membrane potential incubated for 5 to 30 mins in presence of forskolin by Quattro assay relative to PG-01; assay type: cell-based; design: concentration or dose not given beside the values; details: time 5-30 min
Chain of Cystic fibrosis transmembrane conductance regulator (Homo sapiens), P13569 [F508del] (P13569 as listed by the source): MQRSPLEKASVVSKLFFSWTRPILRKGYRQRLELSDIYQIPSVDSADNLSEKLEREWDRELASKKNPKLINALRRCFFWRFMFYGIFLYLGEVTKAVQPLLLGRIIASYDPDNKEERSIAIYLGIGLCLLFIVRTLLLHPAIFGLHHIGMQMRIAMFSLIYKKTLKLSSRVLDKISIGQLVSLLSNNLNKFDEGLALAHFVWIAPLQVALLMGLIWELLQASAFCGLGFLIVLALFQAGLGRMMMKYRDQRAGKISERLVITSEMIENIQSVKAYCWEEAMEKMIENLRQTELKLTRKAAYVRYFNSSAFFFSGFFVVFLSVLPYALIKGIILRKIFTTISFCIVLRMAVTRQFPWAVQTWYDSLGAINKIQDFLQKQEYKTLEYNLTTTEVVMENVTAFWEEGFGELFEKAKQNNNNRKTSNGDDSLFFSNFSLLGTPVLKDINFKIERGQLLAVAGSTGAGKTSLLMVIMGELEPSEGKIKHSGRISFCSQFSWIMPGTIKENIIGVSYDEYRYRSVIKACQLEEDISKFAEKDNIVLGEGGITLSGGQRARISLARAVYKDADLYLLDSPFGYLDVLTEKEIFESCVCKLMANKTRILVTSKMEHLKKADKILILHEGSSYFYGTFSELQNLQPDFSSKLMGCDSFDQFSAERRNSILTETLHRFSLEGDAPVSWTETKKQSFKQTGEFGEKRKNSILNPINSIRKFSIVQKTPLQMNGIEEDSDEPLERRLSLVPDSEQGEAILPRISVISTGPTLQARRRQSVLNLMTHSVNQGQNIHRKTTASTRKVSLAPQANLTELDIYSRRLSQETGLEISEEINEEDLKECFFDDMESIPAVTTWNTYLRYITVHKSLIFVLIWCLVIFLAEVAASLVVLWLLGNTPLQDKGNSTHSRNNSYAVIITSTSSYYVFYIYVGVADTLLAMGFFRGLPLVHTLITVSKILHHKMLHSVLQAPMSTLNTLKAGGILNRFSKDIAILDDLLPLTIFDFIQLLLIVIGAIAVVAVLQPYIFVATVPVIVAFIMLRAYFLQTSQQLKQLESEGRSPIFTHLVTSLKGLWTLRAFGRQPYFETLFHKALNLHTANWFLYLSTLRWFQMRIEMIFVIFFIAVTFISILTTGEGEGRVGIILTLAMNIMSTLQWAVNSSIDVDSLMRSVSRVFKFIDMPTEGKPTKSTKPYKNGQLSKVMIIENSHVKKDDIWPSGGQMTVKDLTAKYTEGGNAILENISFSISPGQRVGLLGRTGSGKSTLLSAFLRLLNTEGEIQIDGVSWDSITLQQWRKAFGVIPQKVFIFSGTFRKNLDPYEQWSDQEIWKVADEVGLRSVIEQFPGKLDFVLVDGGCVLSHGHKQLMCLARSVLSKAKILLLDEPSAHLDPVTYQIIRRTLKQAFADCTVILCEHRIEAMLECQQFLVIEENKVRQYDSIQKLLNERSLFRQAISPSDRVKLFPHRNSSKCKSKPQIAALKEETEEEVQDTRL

[3] = molecular target: T1, Cystic fibrosis transmembrane conductance regulator (Homo sapiens, UniProt P13569, F508DEL); assay: Potentiation of CFTR F508del mutant (unknown origin) expressed in CHO cells assessed as chloride transport by measuring membrane potential incubated for 5 to 30 mins in presence of forskolin by Quattro assay; assay type: cell-based
T1 sequence (P13569 as listed by the source): as above

[4] = Plasma Protein binding in Sprague-Dawley rat at 5 uM incubated for 4 hrs by rapid equilibrium dialysis; assay type: ADME, cell-free; details: read-out: PPB (converted)
[5] = Oral bioavailability in Sprague-Dawley rat at 3 mg/kg measured upto 48 hrs by LC-MS/MS analysis; assay type: ADME, organism-based; details: in vivo
[6] = Clearance in Sprague-Dawley rat at 3 mg/kg, po and 1 mg/kg, iv measured upto 48 hrs by LC MS/MS analysis; assay type: ADME, organism-based; details: in vivo
[7] = Mean residence time in Sprague-Dawley rat at 3 mg/kg, po and 1 mg/kg, iv measured upto 48 hrs by LC-MS/MS analysis; assay type: ADME, organism-based; details: in vivo
[8] = Cmax in Sprague-Dawley rat at 3 mg/kg, po and 1 mg/kg, iv measured upto 48 hrs by LC-MS/MS analysis; assay type: ADME, organism-based; design: dose 3 mg/kg, time <=48; details: in vivo
[9] = Unbound Cmax in Sprague-Dawley rat at 3 mg/kg, po and 1 mg/kg, iv measured upto 48 hrs by LC-MS/MS analysis; assay type: ADME, organism-based; details: in vivo
[10] = Volume of distribution in Sprague-Dawley rat at 3 mg/kg, po and 1 mg/kg, iv measured upto 48 hrs by LC-MS/MS analysis; assay type: ADME, organism-based; details: in vivo
[11] = Plasma Protein binding in human incubated for 4 hrs by equilibrium dialysis method; assay type: ADME, cell-free
[12] = molecular target: T1, Cystic fibrosis transmembrane conductance regulator; assay: Potentiation of CFTR F508 deletion mutant (unknown origin) expressed in HBE cells assessed as change in short circuit current in presence of forskolin and amiloride; assay type: cell-based
[13] = molecular target: T2, Cystic fibrosis transmembrane conductance regulator (Homo sapiens, UniProt P13569); assay: Potentiation of wild type CFTR (unknown origin) expressed in HBE cells assessed as change in short circuit current in presence of forskolin and amiloride; assay type: cell-based
Target sequence in this assay (P13569 whole entry): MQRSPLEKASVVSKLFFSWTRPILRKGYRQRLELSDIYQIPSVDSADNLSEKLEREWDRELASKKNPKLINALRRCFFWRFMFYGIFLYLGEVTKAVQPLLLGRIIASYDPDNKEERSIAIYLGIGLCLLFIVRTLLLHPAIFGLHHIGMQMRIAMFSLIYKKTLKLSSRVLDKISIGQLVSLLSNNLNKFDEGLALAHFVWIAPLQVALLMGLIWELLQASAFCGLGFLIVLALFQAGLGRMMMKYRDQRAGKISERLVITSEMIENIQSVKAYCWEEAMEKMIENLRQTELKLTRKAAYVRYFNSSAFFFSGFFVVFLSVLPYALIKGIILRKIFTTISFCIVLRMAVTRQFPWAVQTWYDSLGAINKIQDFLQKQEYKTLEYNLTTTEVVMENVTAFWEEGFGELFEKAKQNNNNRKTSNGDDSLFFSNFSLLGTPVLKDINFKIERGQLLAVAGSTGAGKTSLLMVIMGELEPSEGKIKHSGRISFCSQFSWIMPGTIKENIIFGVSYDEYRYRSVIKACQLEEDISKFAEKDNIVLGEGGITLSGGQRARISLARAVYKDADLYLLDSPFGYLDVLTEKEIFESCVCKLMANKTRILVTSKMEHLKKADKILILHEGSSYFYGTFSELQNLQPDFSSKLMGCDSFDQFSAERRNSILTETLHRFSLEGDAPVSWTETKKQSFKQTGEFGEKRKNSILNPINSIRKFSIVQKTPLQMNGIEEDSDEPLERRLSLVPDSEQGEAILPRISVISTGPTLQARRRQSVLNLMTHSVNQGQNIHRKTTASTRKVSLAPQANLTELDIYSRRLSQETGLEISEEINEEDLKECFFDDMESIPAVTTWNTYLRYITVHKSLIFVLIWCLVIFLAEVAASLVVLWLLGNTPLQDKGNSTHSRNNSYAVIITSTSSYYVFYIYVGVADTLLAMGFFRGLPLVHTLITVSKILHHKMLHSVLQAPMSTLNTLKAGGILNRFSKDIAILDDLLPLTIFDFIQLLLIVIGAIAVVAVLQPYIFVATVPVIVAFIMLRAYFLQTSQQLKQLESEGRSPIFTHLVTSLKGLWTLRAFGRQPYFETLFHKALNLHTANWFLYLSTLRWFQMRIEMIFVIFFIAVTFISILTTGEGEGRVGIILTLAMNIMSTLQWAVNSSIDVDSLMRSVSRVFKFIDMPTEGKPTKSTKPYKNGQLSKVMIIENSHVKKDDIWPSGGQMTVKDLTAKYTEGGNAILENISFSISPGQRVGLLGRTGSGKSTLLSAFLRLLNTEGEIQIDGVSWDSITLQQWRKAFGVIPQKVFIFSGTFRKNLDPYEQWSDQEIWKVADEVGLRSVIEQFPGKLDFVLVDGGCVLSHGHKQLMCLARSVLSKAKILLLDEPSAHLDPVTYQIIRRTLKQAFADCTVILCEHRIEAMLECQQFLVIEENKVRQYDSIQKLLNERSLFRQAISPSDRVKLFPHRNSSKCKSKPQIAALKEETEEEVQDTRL

[14] = molecular target: T1, Cystic fibrosis transmembrane conductance regulator; assay: Potentiation of CFTR F508del mutant (unknown origin) expressed in FRT cells assessed as chloride transport by measuring membrane potential in presence of forskolin; assay type: cell-based
[15] = molecular target: Cystic fibrosis transmembrane conductance regulator (Homo sapiens, UniProt P13569, G551D); assay: Potentiation of CFTR G551D mutant (unknown origin) expressed in FRT cells assessed as chloride transport by measuring membrane potential in presence of forskolin; assay type: cell-based
Chain of Cystic fibrosis transmembrane conductance regulator (Homo sapiens, UniProt P13569, G551D) (P13569 whole entry G551D): as the sequence (P13569 whole entry) above, with G551D counted along it

[16] = molecular target: T2, Cystic fibrosis transmembrane conductance regulator; assay: Potentiation of wild-type CFTR (unknown origin) expressed in FRT cells assessed as chloride transport by measuring membrane potential in presence of forskolin; assay type: cell-based
Target sequence in this assay (P13569 whole entry): as the sequence (P13569 whole entry) above

[17] = tested on: Cystic fibrosis transmembrane conductance regulator (Homo sapiens), P13569 [F508del]; assay: Potentiation of CFTR F508del mutant (unknown origin) expressed in FRT cells assessed as chloride transport by measuring membrane potential in presence of forskolin relative to PG-01; assay type: cell-based; details: filed as activator
[18] = tested on: Cystic fibrosis transmembrane conductance regulator (Homo sapiens), P13569 [F508del]; assay: Potentiation of CFTR F508del mutant (unknown origin) expressed in CHO cells assessed as chloride transport by measuring membrane potential preincubated for 5 mins followed by forskolin addition by FLIPR assay relative to PG-01; assay type: cell-based; details: filed as activator
[19] = molecular target: T2, Cystic fibrosis transmembrane conductance regulator; assay: Potentiation of wild-type CFTR (unknown origin) expressed in FRT cells assessed as chloride transport by measuring membrane potential in presence of forskolin relative to PG-01; assay type: cell-based; details: filed as activator
Target sequence in this assay (P13569 whole entry, looked up): as the sequence (P13569 whole entry) above

[20] = molecular target: T1, Cystic fibrosis transmembrane conductance regulator; assay: Potentiation of CFTR F508del mutant (unknown origin) expressed in CHO cells assessed as chloride transport by measuring membrane potential preincubated for 5 mins followed by forskolin addition by FLIPR assay; assay type: cell-based
[21] = Volume of distribution at steady state in Sprague-Dawley rat at 5 mg/kg, po or 0.5 mg/kg, iv measured upto 48 hrs by LC-MS/MS analysis; assay type: ADME, organism-based; details: in vivo, read-out: Vdss
[22] = Oral bioavailability in Sprague-Dawley rat at 5 mg/kg measured upto 48 hrs by LC-MS/MS analysis; assay type: ADME, organism-based; details: in vivo
[23] = Clearance in Sprague-Dawley rat at 5 mg/kg, po or 0.5 mg/kg, iv measured upto 48 hrs by LC-MS/MS analysis; assay type: ADME, organism-based; details: in vivo
[24] = Mean residence time in Sprague-Dawley rat at 5 mg/kg, po or 0.5 mg/kg, iv measured upto 48 hrs by LC-MS/MS analysis; assay type: ADME, organism-based; details: in vivo
[25] = Plasma protein binding in Beagle dog at 5 uM incubated for 4 hrs by equilibrium dialysis method; assay type: ADME, cell-free, Canis lupus familiaris; details: read-out: PPB (converted)
[26] = Plasma protein binding in cynomolgus monkey at 5 uM incubated for 4 hrs by equilibrium dialysis method; assay type: ADME, cell-free, Macaca fascicularis; details: read-out: PPB (converted)

Row | SMILES | solubility [1] [µg/mL] | Activity ([2]; filed as activator) [%] | EC50 [3] [nM] | also measured
1 | COC(=O)c1ccc(C(F)(F)F)cc1N | < 1 | 72 | 3780 | 
2 | CNc1nc(C(=O)NCC(C)(O)C(F)(F)F)c(N)cc1C(F)(F)F (stereo in doubt; 30a) [listing 1 of 2 here] |  | 91 |  | 
3 | C[C@@](O)(CNC(=O)c1nc(Br)c(C(F)(F)F)cc1N)C(F)(F)F | 16 (≈ 39 µM) | 91 | 30 | 
4 | CNc1nc(C(=O)NCC(C)(O)C(F)(F)F)c(N)cc1C(F)(F)F (stereo in doubt; 30a) [listing 2 of 2 here] | 13 (≈ 36.1 µM) |  | 276 | 
5 | CN(C)c1nc(C(=O)NCC(C)(O)C(F)(F)F)c(N)cc1C(F)(F)F (stereo in doubt; 31b) [listing 1 of 2 here] |  | 93 |  | 
6 | C[C@](O)(CNC(=O)c1nc(C(F)(F)F)c(C(F)(F)F)cc1N)C(F)(F)F | 82 (≈ 205 µM) | 113 | 9 | fraction unbound at 4 h, 5 µM [4]: 0.019; bioavailability [5]: 75%; clearance [6]: 15 mL/min/kg; MRT [7]: 7.2 h; Cmax [8]: 595 nM; fCmax [9]: 11 nM; Vd [10]: 6.4 L/kg; PPB ([11]; 4 h): 98.6%
7 | CCc1nc(C(=O)NCC(C)(O)C(F)(F)F)c(N)cc1C(F)(F)F (stereo in doubt; 28b) [listing 1 of 2 here] |  | 101 |  | 
8 | CC(C)(C)c1cc(C(C)(C)C)c(NC(=O)c2c[nH]c3ccccc3c2=O)cc1O [IVACAFTOR] |  |  |  | EC50 [12]: 68 nM; EC50 [13]: 34 nM; EC50 [14]: 49 nM; EC50 [15]: 131 nM; EC50 [16]: 70 nM
9 | CN(C)C(=O)c1cc(-c2ccco2)c(C(F)(F)F)cc1N |  |  | 30000 | Activity [2]: 37%
10 | Nc1cc(C(F)(F)F)c(Br)nc1C(=O)NCCC(F)(F)F | 49 (≈ 129 µM) | 132 | 40 | 
11 | CNc1nc(C(=O)NCC(C)(O)C(F)(F)F)c(N)cc1C(F)(F)F (stereo in doubt; 30b) [listing 1 of 2 here] |  | 95 |  | 
12 | CNc1nc(C(=O)NCC(C)(O)C(F)(F)F)c(N)cc1C(F)(F)F (stereo in doubt; 30b) [listing 2 of 2 here] |  |  | 111 | 
13 | Nc1cc(C(F)(F)F)c(-c2ccco2)cc1C(=O)O |  | 63 | 5830 | 
14 | Cc1nc(C(=O)NCC(C)(O)C(F)(F)F)c(N)cc1C(F)(F)F (racemic) |  | 99 | 240 | 
15 | COC(=O)c1cc(-c2cccnc2)c(C(F)(F)F)cc1N | 56 (≈ 189 µM) | 100 | 329 | 
16 | CCOc1nc(C(=O)NC[C@](C)(O)C(F)(F)F)c(N)cc1C(F)(F)F | 60 (≈ 160 µM) | 116 | 15 | 
17 | COC(=O)c1nc(-c2ccco2)c(C(F)(F)F)cc1N | 11 (≈ 38.4 µM) | 72 | 5310 | 
18 | O=c1c(-c2ccc(O)cc2)coc2cc(O)cc(O)c12 |  | 88 |  | Activity [17]: 54%; Activity [18]: 83%; Activity [19]: 138%
19 | CNC(=O)c1nc(Br)c(C(F)(F)F)cc1N |  | 97 | 250 | 

Row | SMILES | solubility [1] [µg/mL] | Activity ([2]; filed as activator) [%] | EC50 [3] [nM] | also measured
20 | CC(C)c1ccc(NC(=O)C(c2ccccc2)N(C)C(=O)Cc2c[nH]c3ccccc23)cc1 (centres undefined) |  |  | 1250 | EC50 [14]: 260 nM; EC50 [16]: 990 nM; EC50 [20]: 390 nM
21 | CCc1nc(C(=O)NCC(C)(O)C(F)(F)F)c(N)cc1C(F)(F)F (stereo in doubt; 28b) [listing 2 of 2 here] |  |  | 43 | 
22 | COC(=O)c1ccccc1N [METHYL ANTHRANILATE] |  |  | 30000 | 
23 | CN(C)c1nc(C(=O)NCC(C)(O)C(F)(F)F)c(N)cc1C(F)(F)F (stereo in doubt; 31a) [listing 1 of 2 here] |  | 89 |  | 
24 | CNC(=O)c1cc(-c2ccco2)c(C(F)(F)F)cc1N | 13 (≈ 45.7 µM) | 83 | 1860 | 
25 | Nc1cc(C(F)(F)F)c(Br)nc1C(=O)NCC(O)(C(F)(F)F)C(F)(F)F | 3 (≈ 6.46 µM) | 117 | 10 | 
26 | CN(C)c1nc(C(=O)NCC(C)(O)C(F)(F)F)c(N)cc1C(F)(F)F (stereo in doubt; 31a) [listing 2 of 2 here] | 165 (≈ 441 µM) |  | 20 | 
27 | COC(=O)c1cc(C2CCCO2)c(C(F)(F)F)cc1N (racemic) | 6 (≈ 20.7 µM) | 90 | 462 | 
28 | CCc1nc(C(=O)NCC(C)(O)C(F)(F)F)c(N)cc1C(F)(F)F (stereo in doubt; 28a) [listing 1 of 2 here] | 91 (≈ 253 µM) |  | 8 | 
29 | COC(=O)c1cc(I)c(C(F)(F)F)cc1N | 2 (≈ 5.8 µM) | 104 | 362 | 
30 | CC(O)CNC(=O)c1nc(Br)c(C(F)(F)F)cc1N (racemic) | 120 (≈ 351 µM) | 79 | 70 | 
31 | Nc1cc(C(F)(F)F)c(Br)nc1C(=O)NC[C@H](O)C(F)(F)F | 290 (≈ 732 µM) | 102 | 23 | 
32 | COC(=O)c1cc(-c2ccco2)c(C(F)(F)F)cc1N | < 1 | 93 | 78 | fraction unbound at 4 h, 5 µM [4]: 0.005; EC50 [14]: 180 nM; Vd [21]: 0.4 L/kg; bioavailability [22]: 15%; Activity [17]: 100%; Activity [18]: 154%; EC50 [16]: 30000 nM; Activity [19]: 206%; clearance [23]: 30 mL/min/kg; EC50 [20]: 920 nM; MRT [24]: 0.2 h
33 | CC(O)(CNC(=O)c1ncc(C(F)(F)F)cc1N)C(F)(F)F (racemic) |  | 78 | 229 | 
34 | COc1nc(C(=O)NC[14C](C)(O)C(F)(F)F)c(N)cc1C(F)(F)F (centres undefined) |  |  |  | fraction unbound at 4 h, 5 µM [25]: 0.052; fraction unbound at 4 h, 5 µM [26]: 0.12; fraction unbound at 4 h ([11]; read-out: PPB (converted)): 0.077
35 | COC(=O)c1cc(-c2ncco2)c(C(F)(F)F)cc1N | 36 (≈ 126 µM) | 92 | 240 | 
36 | CCc1nc(C(=O)NCC(C)(O)C(F)(F)F)c(N)cc1C(F)(F)F (stereo in doubt; 28a) [listing 2 of 2 here] |  | 100 |  | 
37 | CN(C)c1nc(C(=O)NCC(C)(O)C(F)(F)F)c(N)cc1C(F)(F)F (stereo in doubt; 31b) [listing 2 of 2 here] |  |  | 46 | 
38 | CC(C)(O)CNC(=O)c1nc(Br)c(C(F)(F)F)cc1N | 28 (≈ 78.6 µM) | 101 | 77 | 
